Consider 22 compounds from ChEMBL document CHEMBL3286174, “Orally active 7-substituted (4-benzylphthalazin-1-yl)-2-methylpiperazin-1-yl]nicotinonitriles as active-site inhibitors of sphingosine 1-phosphate lyase for the treatment of multiple sclerosis” (J Med Chem, 2014).

In data set [1] the target is T1, Sphingosine-1-phosphate lyase 1 (Homo sapiens, UniProt O95470).
T1 sequence (O95470 whole entry): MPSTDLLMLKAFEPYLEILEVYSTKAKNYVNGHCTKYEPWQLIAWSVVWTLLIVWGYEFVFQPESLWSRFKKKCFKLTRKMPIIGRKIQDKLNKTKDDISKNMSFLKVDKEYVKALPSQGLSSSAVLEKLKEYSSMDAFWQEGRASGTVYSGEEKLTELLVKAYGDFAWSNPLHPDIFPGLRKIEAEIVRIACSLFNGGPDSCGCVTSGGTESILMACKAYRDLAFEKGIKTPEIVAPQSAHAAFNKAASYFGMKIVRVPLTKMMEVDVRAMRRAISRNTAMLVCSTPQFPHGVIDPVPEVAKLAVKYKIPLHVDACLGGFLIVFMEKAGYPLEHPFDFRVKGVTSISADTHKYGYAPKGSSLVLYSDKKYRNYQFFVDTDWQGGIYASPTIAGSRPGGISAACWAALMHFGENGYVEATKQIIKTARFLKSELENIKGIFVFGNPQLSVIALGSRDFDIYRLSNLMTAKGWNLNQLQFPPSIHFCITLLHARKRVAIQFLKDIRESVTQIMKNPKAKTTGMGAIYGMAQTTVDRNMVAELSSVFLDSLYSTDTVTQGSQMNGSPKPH
Put plainly: biochemical.
Description: Inhibition of human recombinant S1PL (62 to 568) expressed in Sf9 insect cells using S1P as substrate after 1 hr

In data set [2] the test system is Rattus norvegicus. Put plainly: Reduction of peripheral CD4+ T cell level in Wistar rat at 50 mg/kg, po after 14 to 24 hrs by flow cytometry analysis. The data set is classed as functional. Also on record: scale not given: the % may be the effect or the level left. In general terms: In flow cytometry, cells or beads pass a laser one at a time.
Data set [3] is described as follows: Cmax in Sprague-Dawley rat at 3 mg/kg, po. To be noted: in vivo. Also on record: dose 3 mg/kg, route oral. It counts as ADME, organism-based.
Data set [4] can be described thus: Blood clearance in Sprague-Dawley rat at 1 mg/kg, iv. To be noted: whole blood. Also on record: dose 1 mg/kg, route intravenous. It counts as ADME, organism-based.
Data set [5] is described as follows: Oral bioavailability in Sprague-Dawley rat at 3 mg/kg. To be noted: in vivo. It counts as ADME, organism-based.
Data set [6] in a line: Drug level in brain of incomplete Freund's adjuvant-induced autoimmune encephalomyelitis DA rat model at 2 mg/kg, po bid administered 2 days before the induction of EAE. To be noted: read-out: Drug uptake. Also on record: dose 2 mg/kg, route oral. It counts as organism-based.
Data set [7] has as its system Rattus norvegicus. Nature of the data set: Reduction of peripheral B cell level in Wistar rat at 2 mg/kg, po administered ever 12 hrs for 4 times measured 12 hrs after last dose by flow cytometry analysis. The data set is classed as functional. Also on record: scale not given: the % may be the effect or the level left.
Data set [8] in a line: Plasma concentration in Wistar rat at 2 mg/kg, po administered ever 12 hrs for 4 times measured 12 hrs after last dose. It counts as ADME, organism-based. Also on record: dose 2 mg/kg, route oral.
Data set [9] in a line: AUC (0 to infinity) in Sprague-Dawley rat at 3 mg/kg, po. To be noted: blood. The data set is classed as ADME, organism-based, Plasma. Also on record: time infinity, dose 3 mg/kg, route oral.
A further data set deals with Protein smoothened (Homo sapiens, UniProt Q99835). Nature of the data set: Antagonist activity at smoothened (unknown origin).
Chain of Protein smoothened (Q99835 whole entry): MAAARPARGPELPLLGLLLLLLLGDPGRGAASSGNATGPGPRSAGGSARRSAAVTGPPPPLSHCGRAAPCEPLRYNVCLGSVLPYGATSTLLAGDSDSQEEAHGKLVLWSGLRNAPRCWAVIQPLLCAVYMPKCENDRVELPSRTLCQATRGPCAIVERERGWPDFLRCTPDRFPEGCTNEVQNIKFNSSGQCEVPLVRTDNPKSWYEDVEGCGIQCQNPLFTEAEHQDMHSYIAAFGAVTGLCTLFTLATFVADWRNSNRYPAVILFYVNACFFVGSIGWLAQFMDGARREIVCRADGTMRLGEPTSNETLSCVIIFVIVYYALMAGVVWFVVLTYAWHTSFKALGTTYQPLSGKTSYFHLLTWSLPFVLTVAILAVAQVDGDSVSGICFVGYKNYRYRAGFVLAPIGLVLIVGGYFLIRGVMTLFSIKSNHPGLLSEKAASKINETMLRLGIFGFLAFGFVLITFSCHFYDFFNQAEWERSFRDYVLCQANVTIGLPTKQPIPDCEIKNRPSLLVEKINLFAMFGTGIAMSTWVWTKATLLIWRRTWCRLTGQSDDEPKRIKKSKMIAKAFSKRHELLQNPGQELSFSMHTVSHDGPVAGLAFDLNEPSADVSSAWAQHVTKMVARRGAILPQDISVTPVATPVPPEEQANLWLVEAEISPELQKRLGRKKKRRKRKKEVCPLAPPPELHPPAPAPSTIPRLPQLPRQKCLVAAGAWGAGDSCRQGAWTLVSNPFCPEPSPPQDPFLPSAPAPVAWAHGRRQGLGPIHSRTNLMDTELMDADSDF
The test system of data set [10] is Rattus norvegicus. Nature of the data set: Antiinflammatory activity in incomplete Freund's adjuvant-induced autoimmune encephalomyelitis DA rat model assessed as S1P level in lymph node at 2 mg/kg, po bid administered 2 days before the induction of EAE relative to control. The data set is classed as functional.
Data set [11] in a line: Drug level in blood of incomplete Freund's adjuvant-induced autoimmune encephalomyelitis DA rat model at 2 mg/kg, po bid administered 2 days before the induction of EAE. It counts as organism-based. Also on record: dose 2 mg/kg, route oral. To be noted: whole blood, read-out: Drug uptake.
Data set [12] concerns Rattus norvegicus. Nature of the data set: Reduction of peripheral CD4+ and CD8+ T cell level in Wistar rat at 2 mg/kg, po administered ever 12 hrs for 4 times measured 12 hrs after last dose by flow cytometry analysis. Also on record: scale not given: the % may be the effect or the level left. The data set is classed as functional.
Data set [13] can be described thus: Half life in Sprague-Dawley rat at 1 mg/kg, iv. The data set is classed as ADME, organism-based. Also on record: dose 1 mg/kg, route intravenous. To be noted: in vivo.
Data set [14] deals with Rattus norvegicus. Nature of the data set: Antiinflammatory activity in incomplete Freund's adjuvant-induced autoimmune encephalomyelitis DA rat model assessed as S1P level in brain at 2 mg/kg, po bid administered 2 days before the induction of EAE. It counts as functional.
Data set [15] can be described thus: Tmax in Sprague-Dawley rat at 3 mg/kg, po. Also on record: dose 3 mg/kg, route oral. The note with it: in vivo. It counts as ADME, organism-based.
Data set [16] deals with T1, Sphingosine-1-phosphate lyase 1. Nature of the data set: Inhibition of S1PL (unknown origin).

Turning to `CCOC(=O)c1ccc(N2CCN(c3nnc(Cc4ccccc4)c4ccccc34)C[C@H]2C)nc1`, the IC50 (as a rule, the concentration needed to halve the response being measured) in data set [1] came out at 3.4 µM.
Turning to `C[C@@H]1CN(c2nnc(Cc3ccccc3)c3ccccc23)CCN1c1ccc(C(F)(F)F)cn1`, inhibition in data set [1] was half-maximal at 30 µM (IC50).
`C[C@@H]1CN(c2nnc(Cc3ccccc3)c3ccccc23)CCN1c1ccc([N+](=O)[O-])cn1` gave a half-maximal inhibitory concentration (IC50) in data set [1] of 0.74 µM.
`C[C@@H]1CN(c2nnc(Cc3ccccc3)c3ccccc23)CCN1c1ccc(C(=O)O)cn1` gave an IC50 in [1] of over 30 µM.
In turn, `CC[C@@H]1CN(c2nnc(Cc3ccccc3)c3ccccc23)CCN1c1ccc(C#N)cn1` gave an IC50 in data set [1] of 1.7 µM.
On the same count and under the same terms, under `CC(C)[C@@H]1CN(c2nnc(Cc3ccccc3)c3ccccc23)CCN1c1ccc(C#N)cn1` stands 2.5 µM; under `C[C@@H]1CN(c2nnc(Cl)c3ccccc23)CCN1c1ccc(C#N)cn1`, over 30 µM; under `C[C@@H]1CN(c2nnc(-c3ccccc3)c3ccccc23)CCN1c1ccc(C#N)cn1`, over 30 µM.
The same measure, in the same setting: the value for `C[C@@H]1CN(c2nnc(CCc3ccccc3)c3ccccc23)CCN1c1ccc(C#N)cn1` was 30 µM; that for `C[C@@H]1CN(c2nnc(Cc3ccccc3)c3cc(Cl)ccc23)CCN1c1ccc(C#N)cn1` was 2.3 µM.
On to `C[C@@H]1CN(c2nnc(Cc3ccccc3)c3ccc(Cl)cc23)CCN1c1ccc(C#N)cn1`, for which the Activity in the data set with Rattus norvegicus [2] is over 80%; in the data set with Rattus norvegicus [7], 70%; with Rattus norvegicus [12] it was over 95%; with Rattus norvegicus [14], 2.4 pmol/mg. For the same compound, in [3], the Cmax (usually the highest concentration seen after dosing) is 99 nM. Besides, the clearance (usually a measure of how efficiently the substance is removed, as volume per time) in data set [4] turned out to be 23 mL/min/kg. Also, the bioavailability (commonly the share of a dose that reaches the circulation, judged against a reference dose that is usually intravenous) in [5] was 26%. The concentration at 48 h in data set [6] came out at 610 nM; in [11], 840 nM. The compound also registered a concentration at 12 h in [8] of 400 nM. Besides, in [9], the AUC(0-inf) (in general, the area under the concentration-time curve extrapolated to infinity) was 1.3 µM·h. In addition, the IC50 was determined as 0.44 µM on Protein smoothened and 0.21 µM in data set [1]. In the data set with Rattus norvegicus [10], the “fold change (FC)” value is listed as 150. Besides, the half-life (usually the time needed for the level to fall by half in the phase considered) in data set [13] is 9.1 h. Besides, in data set [15], the Tmax – broadly, the time from dosing to the highest level – turned out to be 5 h.
As for `C[C@@H]1CN(c2nnc(Cc3ccccc3)c3cc(C(F)(F)F)ccc23)CCN1c1ccc(C#N)cn1`, in [1], the IC50 was 12 µM.
Same read-out and setting: under `C[C@@H]1CN(c2nnc(Cc3ccccc3)c3ccc(C(F)(F)F)cc23)CCN1c1ccc(C#N)cn1` stands 0.1 µM; under `C[C@@H]1CN(c2nnc(Cc3ccccc3)c3cc(C#N)ccc23)CCN1c1ccc(C#N)cn1`, 1.3 µM.
On to `C[C@@H]1CN(c2nnc(Cc3ccccc3)c3ccc(C#N)cc23)CCN1c1ccc(C#N)cn1`, for which, at Protein smoothened, the IC50 is over 25 µM.
In the case of `CC(=O)c1nc([C@@H](O)[C@H](O)[C@H](O)CO)c[nH]1`, the IC50 in data set [16] was over 100 µM.
Consider `C[C@H]1CN(c2nnc(Cc3ccccc3)c3ccccc23)CCN1c1ccc(C#N)cn1`, for which, in data set [1], the IC50 is over 30 µM.
On the same count and under the same terms, under `C[C@@H]1CN(c2nnc(Cc3ccccc3)c3ccccc23)CCN1c1ccc(C#N)cn1` stands 2.4 µM; under `N#Cc1ccc(N2CCN(c3nnc(Cc4ccccc4)c4ccccc34)CC2)nc1`, over 30 µM.
The same measure, in the same setting: the value for `N#Cc1ccc(N2CCN(c3nnc(Cc4ccccc4)c4ccccc34)CC2CO)nc1` (single isomer, unassigned) was over 30 µM.
Consider `CCCCCCCCc1ccc(CCC(N)(CO)CO)cc1` [FINGOLIMOD], for which the IC50 in data set [16] and in data set [1] was 17 µM throughout.
Consider `C/C(=N\O)c1nc([C@@H](O)[C@H](O)[C@H](O)CO)c[nH]1` [LX-2931], for which the IC50 in [16] is over 100 µM.
